Patent US20230174523A1, “BENZENESULFONAMIDE DERIVATIVES AS TRAP1 MODULATORS AND USES THEREOF” (Amathus Therapeutics, Inc., priority 2020, published 2023)
pEC50: −log10 of the molar value.

Assays:
[1] = test system: primary rat TH+ dopaminergic neurons; experiment: Survival, neurite network, CytC release and aSyn aggregation of TH+ dopaminergic neurons injured with MPP+; format: cell-based
Experimental: Rat dopaminergic neurons were cultured as described by Visanji et al., 2008. Briefly, pregnant female rat of 15 days of gestation are sacrificed using a deep anesthesia with CO2 chamber and a cervical dislocation. The midbrains obtained from 15-day-old rat embryos are dissected under a microscope. The embryonic midbrains are removed and placed in ice-cold medium of Leibovitz (L15) containing 2% of Penicillin-Streptomycin (PS) and 1% of bovine serum albumin (BSA). The ventral portion of the mesencephalic flexure, a region of the developing brain rich in dopaminergic neurons, is used for the cell preparations.
The midbrains are dissociated by trypsinisation for 20 min at 37° C. (solution at a final concentration of 0.05% trypsin and 0.02% EDTA). […] Viable cells are counted in a Neubauer cytometer using the trypan blue exclusion test. […] Six wells per condition are assessed.
For each condition, 20 pictures at 10× magnification (plate 1) or 30 pictures at 20× magnification (representing the whole well area) were automatically taken using ImageXpress®. […] The following read-outs were measured: Analysis of total number of TH neurons (TH positive neuron number), Analysis of the ROS into TH positive neurons, Analysis of caspase 3 positive TH neurons, and Analysis of total neurite network of TH positive neurons (in μm).
All values are expressed as mean+/−SEM (standard error of the mean). […]

[2] = biological target: T1, TRAP1 enzyme (Homo sapiens, UniProt Q12931); experiment: ADP Glo assay of TRAP1 ATPase activity; format: biochemical
T1 sequence (Q12931 60-704): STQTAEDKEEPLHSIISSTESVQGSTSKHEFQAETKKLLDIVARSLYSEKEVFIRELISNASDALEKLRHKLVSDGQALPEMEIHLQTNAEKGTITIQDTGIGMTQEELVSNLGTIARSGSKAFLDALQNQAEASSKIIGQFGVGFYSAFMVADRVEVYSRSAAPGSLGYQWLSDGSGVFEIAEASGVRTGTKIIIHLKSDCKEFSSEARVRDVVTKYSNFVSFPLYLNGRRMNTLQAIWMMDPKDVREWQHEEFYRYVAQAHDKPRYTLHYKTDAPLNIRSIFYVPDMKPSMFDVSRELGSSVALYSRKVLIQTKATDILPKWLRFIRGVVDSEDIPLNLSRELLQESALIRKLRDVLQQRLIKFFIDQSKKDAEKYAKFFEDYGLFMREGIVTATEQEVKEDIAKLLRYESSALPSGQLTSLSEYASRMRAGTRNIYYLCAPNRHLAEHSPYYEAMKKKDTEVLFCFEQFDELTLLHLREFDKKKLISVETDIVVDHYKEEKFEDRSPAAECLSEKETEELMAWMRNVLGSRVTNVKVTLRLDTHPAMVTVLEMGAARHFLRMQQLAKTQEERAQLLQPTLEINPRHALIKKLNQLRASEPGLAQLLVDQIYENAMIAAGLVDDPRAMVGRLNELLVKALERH
How it was run: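 150 nM TRAP1 preincubated with compound (0.79–100 μM) 30 min at 37° C in Pipes pH 7.5 buffer (0.05 mM MgCl2, 40 mM KCl), then 20 μM ATP added for 60 min at 37° C. ADP quantified by ADP-Glo luminescence against ATP/ADP standard curve. Emax and EC50 from sigmoidal fit.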

SMILES: Cc1nn(C)c2sc(C(=O)Nc3ccc(F)c(S(=O)(=O)Nc4ccc(Cl)cc4)c3)cc12 [Compound 705]
- neurite network of TH+ dopaminergic neurons ([1]; injury with MPP+ (4 μM, 24 h), FIG. 8): protection of the neurite network
- neurite network of TH+ dopaminergic neurons ([1]; injury with MPP+ (4 μM, 48 h), FIG. 11): protection of neurite network
- pEC50 ([2]; TRAP1 ATPase activation, 150 nM Trap1, 20 μM ATP, geometric mean, read-out: ADP GLO DRC: GeoMean EC50): 4.70 to 5.00
- Emax ([2]; read-out: ADP GLO DRC: Mean Emax): 160 to 199%
